Literature values in patent US20250073140A1, “ANTIPERSPIRANT COMPOSITIONS CONTAINING A SYNERGISTIC COMBINATION OF COPPER, ALUMINUM, TIN, ZINC, ZIRCONIUM, AND SILVER SALTS, AND, METHODS OF USING” (priority 2023, published 2025).

Details: literature report

[Cl][Cu][Cl] [copper chloride]
antiperspirant activity: demonstrated to have antiperspirant activity
